# Legend:
# KDR on ABAE cells = test: 125I-VEGF binding studies on KDR expressing endothelial cells; set-up: species or system bovine
# VEGFR2 (sFlk-1) = test: ELISA of VEGF binding to VEGFR2-coated wells; set-up: species or system mouse
# Method: FIG. 2. […] The plate was then incubated with rabbit anti-VEGF (A-20, Santa Cruz Biotechnology, Inc.) at 1 μg/ml and developed using a peroxidase conjugated goat anti-rabbit antibody. Assays were performed in triplicate. Mean percent binding in the absence of antibody is shown, together with the standard deviation.
# The assay was also performed by coating wells of a microtiter plate with either control or test IgG.
# [1] = tested on: tumor sections (endothelium, connective tissue, tumor cell); test: Immunohistochemistry on frozen tumor sections (reactivity pattern); assay type: binding; set-up: key: EC = endothelium; CT = connective tissue; TC = tumor cell; NR = no reaction; conditions: acetone fixed frozen sections; 2C3 and 12D7 at 20 μg/ml, others 5-10 μg/ml
# Method: (§1) Guinea pig line 10 hepatocellular carcinoma tumor cells (obtained from Dr. Ronald Neuman, NIH, Bethesda, Md.) were grown in strain 2 guinea pigs (NCI, Bethesda, Md.). The human tumors NCI-H358 non-small cell lung carcinoma (NSCLC), NCI-H460 NSCLC (both obtained from Dr. Adi Gazdar, UT Southwestern, Dallas, Tex.), HT29 colon adenocarcinoma (American Type Culture Collection), and L540CY Hodgkin's lymphoma (obtained from Professor V. Diehl, Cologne, Germany) were grown as xenografts in CB17 SCID mice (Charles River, Wilmington, Mass.).
# Tumors were snap frozen in liquid nitrogen and stored at −70° C. Frozen samples of tumor specimens from patients were obtained from the National Cancer Institute Cooperative Human Tissue Network (Southern Division, Birmingham, Ala.). Immunohistochemistry was performed as described by Burrows et al. (1995). […]
# The immunohistochemical reactivity of 3E7, GV39M, and 11B5 on NCI-H358 human NSCLC xenografts was determined and compared with control antibodies (an IgG of irrelevant specificity; A-20, a rabbit anti-VEGF antibody; and MECA 32, a rat anti-mouse endothelial cell antibody). […]
# VEGF = target: T1, VEGF (Homo sapiens, UniProt P15692); test: Competition ELISA (epitope groups); assay type: binding
# T1 sequence (P15692 27-191 isoform P15692-4): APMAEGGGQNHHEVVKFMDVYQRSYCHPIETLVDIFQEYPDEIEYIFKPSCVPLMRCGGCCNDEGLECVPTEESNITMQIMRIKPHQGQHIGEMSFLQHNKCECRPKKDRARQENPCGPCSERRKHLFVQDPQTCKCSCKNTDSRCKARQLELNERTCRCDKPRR
# Method: Competition ELISA studies were performed by first labeling the antibodies with peroxidase according to the manufacturer's instructions (EZ-Link Activated Peroxidase, Pierce). […] Approximately 0.5-2.0 μg/ml of peroxidase labeled test antibody was incubated on the plate in the presence of either buffer alone, an irrelevant IgG, or the other anti-VEGF competing antibodies in a 10-100 fold excess.
# The assay was done in triplicate at least twice for each combination of labeled and competitor antibody. Two antibodies were considered to be in the same epitope group if they cross-blocked each other's binding by greater than 80%.
# HT1080 fibrosarcoma = test: Treatment of established HT1080 xenografts (FIG. 5B); assay type: in vivo, nu/nu mice; conditions: 100 μg every two days
# Method: FIG. 5A and FIG. 5B. […] Treatments (T) were 100 μg of the IgG given i.p., except for the initial treatment that consisted of 500 μg of the IgG given i.v. Mean tumor volume along with the SEM is shown. At the end of the study (day 116), the mice were sacrificed and the tumors dissected out and weighed. […] The mice were treated every other day as indicated (T). […] Mean tumor volume along with the SE is shown.
# (§2) Male nu/nu mice bearing subcutaneous NCI-H358 tumors or HT1080 fibrosarcoma 200-400 mm^3 in size were injected i.p. with test or control antibodies. The NCI-H358 bearing mice were treated with 100 μg of antibodies per injection three times a week during the first week and twice a week during the second and third week. The mice were then switched to 50 μg per injection every five days. The HT1080 bearing mice were treated with 100 μg of the indicated antibody or saline every other day throughout the duration of the study. In both studies, mice were sacrificed when their tumors reached 2500 mm^3 in size or earlier if tumors began to ulcerate.
# NCI-H358 NSCLC tumors = test: Treatment of established NCI-H358 xenografts (FIG. 4); assay type: in vivo, nu/nu mice; conditions: 50-100 μg i.p. every 3-5 days, approximately 10 weeks
# Method: FIG. 4. […] Mean tumor volume along with the SEM over 116 days is shown.
# as §2
# Doses were 50-100 μg every 3-5 days. […] In addition to measuring mean tumor volume (FIG. 4), photographs of the mice from each treatment group were also taken to show the differences in tumor size and appearance at the end of the study.
# [2] = tested on: mouse VEGF in mouse 3LL Lewis Lung carcinoma tumor sections; test: Immunohistochemistry, endothelial cell staining, mouse 3LL tumor; assay type: binding; set-up: key: −, negative; +/−, very weak; 1+, weak; 2+, moderate; 3+, strong; 4+, very strong; conditions: acetone fixed frozen sections
# Method: (§3) Tumors were snap frozen in liquid nitrogen and stored at −70° C. Frozen samples of tumor specimens from patients were obtained from the National Cancer Institute Cooperative Human Tissue Network (Southern Division, Birmingham, Ala.). Immunohistochemistry was performed as described by Burrows et al. (1995).
# Tumors examined through immunohistochemistry were human tumors of various types from cancer patients, transplantable human tumor xenografts of various types grown in mice, guinea pig Line 10 tumor grown in guinea pig, and mouse 3LL tumor grown in mice (see legend to Table 3 for details).
# [3] = tested on: human tumor xenografts (NCI-H358, NCI-H460, HT29, L540); test: Immunohistochemistry, endothelial cell staining, human tumor xenografts; assay type: binding, human tumors grown in SCID mice; set-up: key: −, negative; +/−, very weak; 1+, weak; 2+, moderate; 3+, strong; 4+, very strong; conditions: acetone fixed frozen sections
# Method: as §1, §3
# [4] = tested on: denatured VEGF121 and VEGF165; test: Western blot analysis; assay type: binding, human; conditions: reducing and non-reducing conditions
# Method: The nitrocellulose membrane was blocked using Sea-Block PP82-41 (East Coast Biologics, Berwick, Me.), and probed with primary antibodies using a mini-blotter apparatus (Immunetics, Cambridge, Mass.). The membranes were developed after incubation with the appropriate peroxidase-conjugated secondary antibody by ECL enhanced chemiluminescence.
# Western blot analyses of anti-VEGF antibodies were conducted by separating VEGF165 in the presence of 5% FCS using SDS-PAGE on a 12% gel and analyzing by a standard western blotting protocol using ECL detection. The primary antibodies were incubated with the nitrocellulose membrane using a multi-lane mini-blotter apparatus.
# [5] = tested on: human tumors from cancer patients; test: Immunohistochemistry, endothelial cell staining, human tumors; assay type: binding; set-up: key: −, negative; +/−, very weak; 1+, weak; 2+, moderate; 3+, strong; 4+, very strong; conditions: acetone fixed frozen sections
# Method: as §3
# [6] = tested on: guinea pig VEGF in line 10 guinea pig tumor sections; test: Immunohistochemistry, endothelial cell staining, guinea pig Line 10 tumor; assay type: binding; set-up: key: −, negative; +/−, very weak; 1+, weak; 2+, moderate; 3+, strong; 4+, very strong; conditions: acetone fixed frozen sections
# Method: as §1, §3
substance,measurement,setting,value
"2C3: anti-VEGF monoclonal antibody, IgG2a, k, produced by hybridoma ATCC PTA 1595; blocks VEGF binding to VEGFR2 but not VEGFR1 [Clone 2C3]",Blocking of 125I-VEGF binding to KDR,KDR on ABAE cells,blocks VEGF from binding to KDR in a concentration dependent manner
same,Blocks VEGF from binding to VEGFR2,VEGFR2 (sFlk-1),Yes
same,Effect on VEGF binding to VEGFR2 in ELISA,VEGFR2 (sFlk-1); 100-1000 fold excess,blocked
same,Reduction in VEGF binding to VEGFR2,VEGFR2 (sFlk-1); 100 fold molar excess over VEGF,about 74%
same,"VEGF bound to VEGFR2-coated wells, of the amount bound in the absence of antibody",VEGFR2 (sFlk-1); 1000-fold molar excess over VEGF (1 nM VEGF),~19%
same,Reduction in VEGF binding to VEGFR2,VEGFR2 (sFlk-1); 1000 fold molar excess over VEGF,about 81%
same,Reactivity (immunohistochemical pattern on tumor sections),[1],NR
same,Cross-reactivity of 2C3 and A4.6.1 in competition studies,VEGF,not cross-reactive
same,Epitope Group,VEGF; determined through competitive ELISA,4
same,Effect on growth of HT1080 tumors,HT1080 fibrosarcoma,arrested the growth of the tumors
same,"Mean tumor volume at the end of the study, of the initial mean tumor volume",NCI-H358 NSCLC tumors,30%
same,"Endothelial Cell Staining, Mouse Tumor (3LL)",[2],−
same,"Endothelial Cell Staining, Xenograft (various)",[3],−
same,Reactivity with denatured VEGF on western blots,[4],react
same,"Endothelial Cell Staining, Hu Tumor (various)",[5],−
same,"Endothelial Cell Staining, Guinea Pig Tumor (Line 10)",[6],−

# From patent US6342219B1 (Board of Regents, The University of Texas System, priority 1999, dated 2002)
